Our source for the GI50 and TGI values is PubChem BioAssay (NCI).

Among the test systems are UO-31 renal; BT-549 breast; K-562 leukemia; M14 melanoma; SNB-19 CNS; SK-MEL-2 melanoma; SN12C renal; SNB-75 CNS; NCI/ADR-RES ovarian; A498 renal.
Common to all, as to assay: NCI tumour cell line growth inhibition, 48 h

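How tested: cells in 96-well plates exposed to compound for 48 hours at five concentrations. GI50 marks 50% less growth. TGI: total growth inhibition.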 Some results are limits rather than exact numbers.

With `Nc1cc2ccncc2c2ccccc12`, the GI50 was 4.1 µM in the experiment with UO-31 renal; 23.9 µM with BT-549 breast; 13.5 µM in the experiment on K-562 leukemia; 14.5 µM in the experiment on M14 melanoma; 19.5 µM in the experiment on SNB-19 CNS; 13.6 µM with SK-MEL-2 melanoma. Moreover, the GI50 in the experiment on SN12C renal was 11.4 µM; in the experiment with SNB-75 CNS, 16.1 µM; in the experiment with NCI/ADR-RES ovarian it was 8.7 µM; in the experiment with A498 renal, 1.84 µM. In addition, the TGI in the experiment on UO-31 renal was 45.6 µM; in the experiment on BT-549 breast, greater than 100 µM; with K-562 leukemia, 73 µM; in the experiment on M14 melanoma, 32.1 µM; in the experiment on SNB-19 CNS, greater than 100 µM; in the experiment on SK-MEL-2 melanoma, 30 µM. Besides, the TGI with SN12C renal was greater than 100 µM; in the experiment with SNB-75 CNS, 35.2 µM; with NCI/ADR-RES ovarian, greater than 100 µM; in the experiment on A498 renal it was 13.7 µM.

Regarding `COc1cc2cc(Oc3ccc(NC(=O)Nc4cc(C(F)(F)F)cc(C(F)(F)F)c4)cc3)c(C)nc2cc1OCCN1CCCCC1`, the GI50 in the experiment with UO-31 renal was 1.28 µM; in the experiment with BT-549 breast, 1.8 µM; in the experiment with K-562 leukemia, 1.5 µM; with M14 melanoma, 1.68 µM; in the experiment on SNB-19 CNS it was 1.71 µM; in the experiment with SK-MEL-2 melanoma, 1.85 µM. The GI50 was 1.68 µM in the experiment with SN12C renal, 1.45 µM in the experiment on SNB-75 CNS, 1.68 µM in the experiment on NCI/ADR-RES ovarian and 1.75 µM with A498 renal. Further, the TGI with UO-31 renal came out at 2.55 µM; in the experiment on BT-549 breast it was 3.41 µM; in the experiment on K-562 leukemia, 3.31 µM; in the experiment on M14 melanoma, 3.16 µM; with SNB-19 CNS, 3.18 µM; with SK-MEL-2 melanoma, 3.57 µM. Besides, the TGI turned out to be 3.22 µM in the experiment on SN12C renal, 2.99 µM in the experiment on SNB-75 CNS, 3.24 µM in the experiment on NCI/ADR-RES ovarian and 3.23 µM in the experiment on A498 renal.

As for `O=C(N/N=C\c1cc(Br)cc(Br)c1O)N/N=C/c1cc(Br)cc(Br)c1O`, the GI50 in the experiment on UO-31 renal was 1.8 µM; in the experiment on BT-549 breast, 5.54 µM; in the experiment on K-562 leukemia it was 0.7 µM; in the experiment on M14 melanoma, 4.29 µM; in the experiment with SNB-19 CNS, 3.65 µM; in the experiment on SK-MEL-2 melanoma it was 11.2 µM. For the same compound, the GI50 was 4.56 µM in the experiment with SN12C renal, 1.11 µM with SNB-75 CNS, 3.16 µM in the experiment with NCI/ADR-RES ovarian and 7.81 µM in the experiment with A498 renal. Moreover, the TGI with UO-31 renal turned out to be 8.7 µM; in the experiment on BT-549 breast, 25.7 µM; with K-562 leukemia it was 14.3 µM; in the experiment on M14 melanoma, 19 µM; in the experiment on SNB-19 CNS, 17.7 µM; with SK-MEL-2 melanoma, 24 µM. Moreover, the TGI with SN12C renal was 17.8 µM; in the experiment with SNB-75 CNS it was 15.6 µM; in the experiment with NCI/ADR-RES ovarian, 16 µM; in the experiment with A498 renal, 22.8 µM.

For `CCc1cc(Nc2nccc(-c3c(-c4ccc(OC)c(C(=O)Nc5c(F)cccc5F)c4)nc4ccccn34)n2)c(OC)cc1N1CCC(N2CCN(S(C)(=O)=O)CC2)CC1`, the GI50 in the experiment on UO-31 renal was greater than 100 µM; with BT-549 breast, greater than 100 µM; in the experiment with K-562 leukemia, greater than 100 µM; with M14 melanoma, greater than 58.1 µM; in the experiment on SNB-19 CNS, greater than 56.6 µM; in the experiment on SK-MEL-2 melanoma, greater than 51.8 µM. Moreover, the GI50 with SN12C renal was greater than 100 µM; in the experiment with SNB-75 CNS, greater than 50.1 µM; with NCI/ADR-RES ovarian, greater than 100 µM; with A498 renal it was greater than 100 µM. The TGI is greater than 100 µM with UO-31 renal; greater than 100 µM in the experiment with BT-549 breast; greater than 100 µM in the experiment with K-562 leukemia; greater than 100 µM with M14 melanoma; greater than 100 µM in the experiment with SNB-19 CNS; greater than 88.4 µM in the experiment on SK-MEL-2 melanoma. The TGI in the experiment with SN12C renal, in the experiment with SNB-75 CNS, in the experiment with NCI/ADR-RES ovarian and in the experiment with A498 renal was greater than 100 µM in each case.

In the case of `S=C1NC2=C(CCOc3c2ccc2ccccc32)C(c2ccc(Cl)cc2)N1` (centres undefined), the GI50 was 46.2 µM in the experiment on UO-31 renal; 25.8 µM in the experiment on BT-549 breast; 42.9 µM in the experiment on K-562 leukemia; 54.3 µM in the experiment on M14 melanoma; 56.4 µM in the experiment with SNB-19 CNS; 80.9 µM in the experiment on SK-MEL-2 melanoma. Also, the GI50 is 25.8 µM in the experiment on SN12C renal, 84 µM in the experiment with SNB-75 CNS, 31.9 µM with NCI/ADR-RES ovarian and 26.2 µM with A498 renal. Further, the TGI is greater than 100 µM in the experiment on UO-31 renal; 91.9 µM in the experiment with BT-549 breast; greater than 100 µM in the experiment with K-562 leukemia; greater than 100 µM in the experiment on M14 melanoma; greater than 100 µM in the experiment on SNB-19 CNS; greater than 100 µM in the experiment on SK-MEL-2 melanoma. Besides, the TGI in the experiment on SN12C renal was 66 µM; in the experiment on SNB-75 CNS, greater than 100 µM; in the experiment with NCI/ADR-RES ovarian, greater than 100 µM; in the experiment with A498 renal, 68 µM.

Turning to `C=C1C(=O)O[C@H]2[C@H]1CC/C(COC(=O)c1ccc(Br)cc1)=C\CC[C@@]1(C)O[C@@H]21`, the GI50 is 1.29 µM in the experiment on UO-31 renal; 1.3 µM with BT-549 breast; 1.2 µM in the experiment with K-562 leukemia; 1.47 µM with M14 melanoma; 1.85 µM in the experiment on SNB-19 CNS; 1.64 µM with SK-MEL-2 melanoma. The GI50 is 1.63 µM in the experiment with SN12C renal, 1.16 µM in the experiment on SNB-75 CNS, 2.34 µM with NCI/ADR-RES ovarian and 11 µM in the experiment on A498 renal. Moreover, the TGI with UO-31 renal worked out at 2.56 µM; in the experiment on BT-549 breast, 3.01 µM; with K-562 leukemia, 10.3 µM; in the experiment with M14 melanoma, 3.2 µM; with SNB-19 CNS, 4.08 µM; in the experiment with SK-MEL-2 melanoma it was 3.06 µM. Moreover, the TGI was determined as 3.69 µM in the experiment on SN12C renal, 2.41 µM with SNB-75 CNS, 8.68 µM in the experiment on NCI/ADR-RES ovarian and 23.7 µM in the experiment on A498 renal.

Turning to `NC(=S)c1cn(C2OC(CO)C(O)C2O)c2ncnc(N)c12` (centres undefined), the GI50 in the experiment on UO-31 renal was 0.275 µM; with BT-549 breast, 0.149 µM; in the experiment on K-562 leukemia it was 0.199 µM; in the experiment on M14 melanoma it was 0.0989 µM; in the experiment on SNB-19 CNS it was 0.411 µM; with SK-MEL-2 melanoma it was 0.175 µM. For the same compound, the GI50 in the experiment with SN12C renal was 0.201 µM; in the experiment on SNB-75 CNS it was 0.223 µM; in the experiment with NCI/ADR-RES ovarian it was 0.192 µM; with A498 renal, 0.535 µM. Also, the TGI stood at 1.68 µM in the experiment with UO-31 renal; 1.65 µM with BT-549 breast; 0.354 µM in the experiment on M14 melanoma; 13.7 µM in the experiment on SNB-19 CNS; 0.605 µM in the experiment on SK-MEL-2 melanoma; 12.5 µM in the experiment with SN12C renal. The TGI in the experiment on SNB-75 CNS is 1.84 µM; with NCI/ADR-RES ovarian, 8.24 µM; with A498 renal it was 3.01 µM.

With `CC[C@@]1(O)C(=O)N(CCN(C)C)Cc2c1cc1n(c2=O)Cc2cc3ccccc3nc2-1`, the GI50 was 9.41 µM with UO-31 renal; 42.5 µM in the experiment with BT-549 breast; greater than 41.7 µM with K-562 leukemia; 9.31 µM in the experiment on M14 melanoma; greater than 24.9 µM in the experiment on SNB-19 CNS; greater than 100 µM in the experiment on SK-MEL-2 melanoma. Also, the GI50 with SN12C renal is 8.85 µM; in the experiment with SNB-75 CNS it was 17.4 µM; with NCI/ADR-RES ovarian, 13.7 µM; in the experiment on A498 renal it was 56.2 µM. The TGI in the experiment with UO-31 renal, in the experiment on BT-549 breast, in the experiment with K-562 leukemia, in the experiment with M14 melanoma, with SNB-19 CNS and in the experiment on SK-MEL-2 melanoma was greater than 100 µM in each case. Moreover, the TGI in the experiment with SN12C renal is greater than 100 µM; in the experiment with SNB-75 CNS it was greater than 100 µM; with NCI/ADR-RES ovarian, greater than 94.8 µM; in the experiment on A498 renal, greater than 100 µM.

For `O=C(CN1CCN(c2cc3c(cc2F)c(=O)c(C(=O)O)cn3C2CC2)CC1)Nc1ccc(C(=O)/C=C/c2ccccc2)cc1`, the GI50 was 2.78 µM in the experiment on UO-31 renal; 3.55 µM in the experiment with BT-549 breast; 3.07 µM with K-562 leukemia; 5.22 µM with M14 melanoma; 3.05 µM in the experiment with SNB-19 CNS; 2.94 µM in the experiment with SK-MEL-2 melanoma. Further, the GI50 was 3.02 µM in the experiment on SN12C renal, 3.22 µM in the experiment with SNB-75 CNS, 9.75 µM with NCI/ADR-RES ovarian and 1.28 µM in the experiment on A498 renal. Further, the TGI in the experiment on UO-31 renal is 45.4 µM; in the experiment with BT-549 breast, greater than 100 µM; with K-562 leukemia it was greater than 100 µM; in the experiment with M14 melanoma it was greater than 100 µM; in the experiment on SNB-19 CNS, greater than 100 µM; in the experiment on SK-MEL-2 melanoma, 11.3 µM. Besides, the TGI with SN12C renal is greater than 100 µM; in the experiment on SNB-75 CNS it was greater than 100 µM; in the experiment on NCI/ADR-RES ovarian, greater than 100 µM; in the experiment on A498 renal it was 7.37 µM.
